Read-outs that look alike come from different tables or passages of the source.

One test has as its target T1, 5HT2B receptors (Homo sapiens, UniProt P41595).
T1 construct: expressed in transfected cells; host or cells: CHO-K1 cells
In words: Human 5-HT2B functional high throughput screening assay in CHO-K1 cells (calcium flux). The class given is cell-based. The settings on record: for EC50: CHO-K1 cells, calcium flux. Summed up:
(§1)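 Agonism was measured as FLIPR fluorescence increase (480/530 nm, 25° C) with Ca4 dye and 2.5 mM probenecid, in serum-starved CHO-K1 lines overexpressing human 5-HT2C or 5-HT2B. Six-point 1:10 dilutions from 10 μM (0.2% DMSO final) were fitted by 4-parameter logistics. Responses were normalised to serotonin to give EC50 and % Emax.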
A general note: Calcium assays in cells follow changes in intracellular calcium, usually with a dye or a luminescent sensor.

Another test has as its target T2, 5HT2C receptors (Homo sapiens, UniProt P28335).
T2 sequence (P28335 33-458): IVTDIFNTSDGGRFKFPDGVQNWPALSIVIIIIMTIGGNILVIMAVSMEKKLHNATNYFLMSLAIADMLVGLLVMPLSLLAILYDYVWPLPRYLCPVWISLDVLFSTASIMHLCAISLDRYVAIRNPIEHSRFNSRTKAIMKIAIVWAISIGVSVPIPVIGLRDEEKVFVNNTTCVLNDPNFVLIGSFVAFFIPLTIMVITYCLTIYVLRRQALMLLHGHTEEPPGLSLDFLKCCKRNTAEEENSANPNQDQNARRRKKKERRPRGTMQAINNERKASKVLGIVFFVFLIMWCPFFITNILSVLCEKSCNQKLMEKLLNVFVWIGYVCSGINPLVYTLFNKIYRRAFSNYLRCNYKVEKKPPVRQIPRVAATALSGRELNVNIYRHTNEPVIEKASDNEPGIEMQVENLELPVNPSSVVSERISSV
In words: Human 5-HT2C functional high throughput screening assay in CHO-K1 cells (calcium flux). The settings on record: for Emax: CHO-K1, 5-HT2C, maximum functional response as percentage relative to the effect of serotonin; for EC50: CHO-K1 cells, calcium flux. Format: cell-based. Further details: expressed in transfected cells; host or cells: CHO-K1 cells. A digest of the protocol:
as §1

[1] abbreviates: 5-HT2B, maximum functional response as percentage relative to the effect of serotonin.
[2] abbreviates: 5-HT2B agonist activity, read-out: EC50.
Setting [3] is: 5-HT2C agonist activity, read-out: EC50.

T1 sequence (P41595 whole entry): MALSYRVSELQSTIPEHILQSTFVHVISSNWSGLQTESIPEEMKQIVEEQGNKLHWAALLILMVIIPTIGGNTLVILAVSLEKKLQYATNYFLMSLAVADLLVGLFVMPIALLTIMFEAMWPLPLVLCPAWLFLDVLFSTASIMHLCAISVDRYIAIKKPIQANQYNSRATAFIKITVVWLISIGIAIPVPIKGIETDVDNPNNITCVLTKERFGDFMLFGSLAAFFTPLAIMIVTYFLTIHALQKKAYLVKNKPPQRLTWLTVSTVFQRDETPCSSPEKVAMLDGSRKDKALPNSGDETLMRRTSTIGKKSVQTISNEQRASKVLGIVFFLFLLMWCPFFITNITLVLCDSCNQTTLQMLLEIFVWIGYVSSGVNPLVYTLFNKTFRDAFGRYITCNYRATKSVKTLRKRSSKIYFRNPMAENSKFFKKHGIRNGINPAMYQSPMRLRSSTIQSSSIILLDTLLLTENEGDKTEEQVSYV

By Emax is commonly meant the size of the effect at its maximum, as opposed to the concentration needed. As usually defined, the EC50 is the concentration at which the effect is half-maximal. Take `CC(C)COc1ccc2c(c1)C(=O)NC[C@@H]1CNC[C@@H]21` (relative stereo) [Example 166, Trans-8-isobutoxy-1,2,3,3a,4,5-hexahydrobenzo[e]pyrrolo[3,4-c]azepin-6(10bH)-one]: the Emax result on 5HT2B receptors (setting [1]) was “inactive”; on 5HT2C receptors, > 120%. On 5HT2B receptors (EC50, 5-HT2B agonist activity), the EC50 was > 10 µM.
On to `O=C1NC[C@@H]2CNC[C@H]2c2ccc(OCC3CCCCC3)cc21` (relative stereo) [Example 167, Trans-8-(cyclohexylmethoxy)-1,2,3,3a,4,5-hexahydrobenzo[e]pyrrolo[3,4-c]azepin-6(10bH)-one], for which the results for the maximal response (Emax) entry on 5HT2B receptors (setting [1]) and at 5HT2C receptors were “inactive” and > 120%, respectively. Besides, the EC50 is > 10 µM on 5HT2B receptors (EC50, 5-HT2B agonist activity) and 0.005 µM at 5HT2C receptors (EC50, 5-HT2C agonist activity).
`O=C1NC[C@@H]2CNC[C@H]2c2ccc(OCc3c(F)cccc3F)cc21` (relative stereo) [Example 168, Trans-8-(2,6-difluorobenzyloxy)-1,2,3,3a,4,5-hexahydrobenzo[e]pyrrolo[3,4-c]azepin-6(10bH)-one]: the results for the EC50 on 5HT2B receptors (setting [2]) and on 5HT2C receptors (setting [3]) were > 10 µM and 0.001 µM, respectively. For the same molecule, the Emax entry is “inactive” at 5HT2B receptors (setting [1]) and > 120% on 5HT2C receptors (read-out: Emax).
For `CC(C)CCOc1ccc2c(c1)C(=O)NC[C@@H]1CNC[C@@H]21` (relative stereo) [Example 169, Trans-8-(isopentyloxy)-1,2,3,3a,4,5-hexahydrobenzo[e]pyrrolo[3,4-c]azepin-6(10bH)-one], the maximum response (Emax) entry is “inactive” at 5HT2B receptors (setting [1]) and > 120% on 5HT2C receptors. In addition, the EC50 was > 10 µM on 5HT2B receptors (EC50, 5-HT2B agonist activity) and 0.001 µM at 5HT2C receptors (EC50, 5-HT2C agonist activity).
As for `CCC(C)Oc1ccc2c(c1)C(=O)NC[C@@H]1CN(C)C[C@@H]21` (relative stereo) [Example 170, Trans-8-sec-butoxy-2-methyl-1,2,3,3a,4,5-hexahydrobenzo[e]pyrrolo[3,4-c]azepin-6(10bH)-one], the figures for the Emax entry at 5HT2B receptors (setting [1]) and on 5HT2C receptors were “inactive” and 120%, respectively. The EC50 on 5HT2B receptors (EC50, 5-HT2B agonist activity) is > 10 µM; at 5HT2C receptors (EC50, 5-HT2C agonist activity) it was 0.07 µM.
As to `CC(C)CCOc1ccc2c(c1)C(=O)NC[C@@H]1CN(C)C[C@@H]21` (relative stereo) [Example 171, Trans-8-(isopentyloxy)-2-methyl-1,2,3,3a,4,5-hexahydrobenzo[e]pyrrolo[3,4-c]azepin-6(10bH)-one], the results for the Emax result at 5HT2B receptors (setting [1]) and at 5HT2C receptors were “inactive” and > 120%, respectively. Also, the 50% effective concentration (EC50) was > 10 µM at 5HT2B receptors (EC50, 5-HT2B agonist activity) and 0.03 µM at 5HT2C receptors (EC50, 5-HT2C agonist activity).
In the case of `CC(C)COc1ccc2c(c1)C(=O)NC[C@@H]1CN(C)C[C@@H]21` (relative stereo) [Example 172, Trans-8-isobutoxy-2-methyl-1,2,3,3a,4,5-hexahydrobenzo[e]pyrrolo[3,4-c]azepin-6(10bH)-one], the Emax result on 5HT2B receptors (setting [1]) was “inactive”; at 5HT2C receptors, > 120%. Also, the EC50 on 5HT2B receptors (EC50, 5-HT2B agonist activity) was > 10 µM; at 5HT2C receptors (EC50, 5-HT2C agonist activity), 0.06 µM.
Turning to `COc1ccccc1CCOc1ccc2c(c1)C(=O)NC[C@@H]1CNC[C@@H]21` (relative stereo) [Example 173, Trans-8-(2-methoxyphenethoxy)-1,2,3,3a,4,5-hexahydrobenzo[e]pyrrolo[3,4-c]azepin-6(10bH)-one], the EC50 on 5HT2B receptors (setting [2]) was > 10 µM; on 5HT2C receptors (setting [3]), 0.02 µM. The Emax result at 5HT2B receptors (setting [1]) is “inactive”; at 5HT2C receptors (read-out: Emax), > 120%.
In the case of `COc1cccc(CCOc2ccc3c(c2)C(=O)NC[C@@H]2CNC[C@@H]32)c1` (relative stereo) [Example 174, Trans-8-(3-methoxyphenethoxy)-1,2,3,3a,4,5-hexahydrobenzo[e]pyrrolo[3,4-c]azepin-6(10bH)-one], the values for the EC50 at 5HT2B receptors (setting [2]) and at 5HT2C receptors (setting [3]) were > 10 µM and 0.03 µM, respectively. Moreover, the Emax entry was “inactive” at 5HT2B receptors (setting [1]) and 110% at 5HT2C receptors (read-out: Emax).
For the molecule `COc1ccc(CCOc2ccc3c(c2)C(=O)NC[C@@H]2CNC[C@@H]32)cc1` (relative stereo) [Example 175, Trans-8-(4-methoxyphenethoxy)-1,2,3,3a,4,5-hexahydrobenzo[e]pyrrolo[3,4-c]azepin-6(10bH)-one], the half-maximal effective concentration (EC50) at 5HT2B receptors (setting [2]) was > 10 µM; on 5HT2C receptors (setting [3]), 0.006 µM. The Emax result at 5HT2B receptors (setting [1]) was “inactive”; at 5HT2C receptors (read-out: Emax) it was > 120%.
As to `CN1C[C@H]2CNC(=O)c3cc(OCC4CCCCC4)ccc3[C@@H]2C1` (relative stereo) [Example 176, Trans-8-(cyclohexylmethoxy)-2-methyl-1,2,3,3a,4,5-hexahydrobenzo[e]pyrrolo[3,4-c]azepin-6(10bH)-one], the EC50 is > 10 µM at 5HT2B receptors (setting [2]) and 0.2 µM on 5HT2C receptors (setting [3]). Besides, the Emax result is “inactive” on 5HT2B receptors (setting [1]) and > 120% at 5HT2C receptors.
On to `O=C1NC[C@@H]2CNC[C@H]2c2ccc(-c3ccncc3)cc21` (relative stereo) [Example 177, Trans-8-(pyridin-4-yl)-1,2,3,3a,4,5-hexahydrobenzo[e]pyrrolo[3,4-c]azepin-6(10bH)-one], for which the Emax entry at 5HT2B receptors (setting [1]) is “inactive”; on 5HT2C receptors, > 120%. In addition, the EC50 at 5HT2B receptors (EC50, 5-HT2B agonist activity) was > 10 µM; at 5HT2C receptors (EC50, 5-HT2C agonist activity), 0.1 µM.
As to `COc1ncc(-c2ccc3c(c2)C(=O)NC[C@@H]2CNC[C@@H]32)cn1` (relative stereo) [Example 178, Trans-8-(2-methoxypyrimidin-5-yl)-1,2,3,3a,4,5-hexahydrobenzo[e]pyrrolo[3,4-c]azepin-6(10bH)-one], the Emax result on 5HT2B receptors (setting [1]) was “inactive”; at 5HT2C receptors, > 120%. Further, the EC50 is > 10 µM on 5HT2B receptors (EC50, 5-HT2B agonist activity) and 0.07 µM at 5HT2C receptors (EC50, 5-HT2C agonist activity).
As to `O=C1NC[C@@H]2CNC[C@H]2c2ccc(-c3ccsc3)cc21` (relative stereo) [Example 184, Trans-8-(thiophen-3-yl)-1,2,3,3a,4,5-hexahydrobenzo[e]pyrrolo[3,4-c]azepin-6(10bH)-one], the EC50 was > 10 µM on 5HT2B receptors (setting [2]) and 0.0003 µM on 5HT2C receptors (setting [3]). Also, the Emax result was “inactive” at 5HT2B receptors (setting [1]) and > 120% at 5HT2C receptors (read-out: Emax).
Turning to `CN1C[C@H]2CNC(=O)c3cc(-c4cccc(C(C)(O)C(F)(F)F)c4)ccc3[C@@H]2C1` (relative stereo) [Example 185, Trans-2-methyl-8-(3-(1,1,1-trifluoro-2-hydroxypropan-2-yl)phenyl)-1,2,3,3a,4,5-hexahydrobenzo[e]pyrrolo[3,4-c]azepin-6(10bH)-one], the EC50 on 5HT2B receptors (setting [2]) was > 10 µM; at 5HT2C receptors (setting [3]), 0.001 µM. The Emax result was “inactive” on 5HT2B receptors (setting [1]) and 120% on 5HT2C receptors (read-out: Emax).
On to `CN1C[C@H]2CNC(=O)c3cc(-c4cccc(C(C)(C)O)c4)ccc3[C@@H]2C1` (relative stereo) [Example 186, Trans-8-(3-(2-hydroxypropan-2-yl)phenyl)-2-methyl-1,2,3,3a,4,5-hexahydrobenzo[e]pyrrolo[3,4-c]azepin-6(10bH)-one], for which the EC50 on 5HT2B receptors (setting [2]) was > 10 µM; on 5HT2C receptors (setting [3]), 0.001 µM. The Emax entry is “inactive” at 5HT2B receptors (setting [1]) and > 120% at 5HT2C receptors (read-out: Emax).
With `CC(=O)c1cccc(-c2ccc3c(c2)C(=O)N(C)C[C@@H]2CNC[C@@H]32)c1` (relative stereo) [Example 187, Trans-8-(3-acetylphenyl)-5-methyl-1,2,3,3a,4,5-hexahydrobenzo[e]pyrrolo[3,4-c]azepin-6(10bH)-one], the EC50 on 5HT2B receptors (setting [2]) was > 10 µM; at 5HT2C receptors (setting [3]), 0.003 µM. For the same molecule, the values for the Emax result at 5HT2B receptors (setting [1]) and on 5HT2C receptors (read-out: Emax) were “inactive” and > 120%, respectively.
Take `COc1ccc2c(c1)C(=O)N(C)C[C@@H]1CNC[C@@H]21` (relative stereo) [Example 188, Trans-8-methoxy-5-methyl-1,2,3,3a,4,5-hexahydrobenzo[e]pyrrolo[3,4-c]azepin-6(10bH)-one]: the Emax on 5HT2B receptors (CHO-K1) was 90%; on 5HT2C receptors, > 120%. Further, the EC50 at 5HT2B receptors (EC50, 5-HT2B agonist activity) was found to be 1 µM; on 5HT2C receptors (EC50, 5-HT2C agonist activity), 0.06 µM.
Regarding `CN1C[C@@H]2CNC[C@H]2c2ccc(-c3cccc(CCO)c3)cc2C1=O` (relative stereo) [Example 189, Trans-8-(3-(2-hydroxyethyl)phenyl)-5-methyl-1,2,3,3a,4,5-hexahydrobenzo[e]pyrrolo[3,4-c]azepin-6(10bH)-one], the EC50 is > 10 µM on 5HT2B receptors (setting [2]) and 0.0009 µM at 5HT2C receptors (setting [3]). Further, the Emax result was “inactive” at 5HT2B receptors (setting [1]) and > 120% at 5HT2C receptors (read-out: Emax).
In the case of `COc1ccc2c(c1)C(=O)N(C)C[C@@H]1CN(C)C[C@@H]21` (relative stereo) [Example 190, Trans-8-methoxy-2,5-dimethyl-1,2,3,3a,4,5-hexahydrobenzo[e]pyrrolo[3,4-c]azepin-6(10bH)-one], the results for the Emax result at 5HT2B receptors (setting [1]) and at 5HT2C receptors were “inactive” and > 120%, respectively. Also, the EC50 was > 10 µM on 5HT2B receptors (EC50, 5-HT2B agonist activity) and 0.1 µM at 5HT2C receptors (EC50, 5-HT2C agonist activity).

Source of the values: patent US8846951B2 (AbbVie Inc., priority 2009, dated 2014).
